By EC50 is commonly meant the concentration needed to bring the measured effect to its halfway point. Higher therefore signals weaker potency. The term kon denotes a measure of how fast the partners come together. By koff is commonly meant a measure of how fast the partners let go of each other. The term Ki denotes a measure of affinity in units of concentration, obtained from inhibition or displacement. A lower Ki goes with higher affinity.

Several values for one entry are separate records, joined by “and”; a condition that tells them apart may be missing. Equal entries are not always repeated. Where two headings read alike, the source gives them in different places.

Data set [1] can be described thus: Thermal relaxation of PSS cis states (Arrhenius extrapolation). It is filed as physicochemical. The following applies: approximate; HBSS buffer + 1% DMSO, extrapolated to 20 °C. The method, then:
(§1) Experimental procedures – Photochemistry
(§2) UV−Vis spectra were recorded using a Thermo-scientific Evolution 201 PC spectrophotometer equipped with a thermostated cell holder set at 20 °C. Fits of UV−vis spectroscopy data were generated using Prism 10.1.0. Illumination for almost all photochemical experiments was executed using a Sutter instruments Lambda LS with a 300 W full-spectrum lamp connected to a Sutter instruments Lambda 10-3 optical filter changer equipped with 360 ± 10 nm, 434 ± 9 nm 494 ± 9 nm, or a Lambda 721 optical beam combiner system equipped with 365 ± 11 nm and 506 ± 14 nm filter. The light intensity used for the lambda 10-3 optical filter is 0.93 mW/mm2 using the 360 ± 20 nm filter, 0.79 mW/mm2 for the 434 ± 9 nm filter, 0.77 mW/mm2 for the 494 ± 9 nm filter as measured using a Thorlabs PM16−401 power meter. The light intensity used for the lambda 721 optical beam combiner is 200 mW using the 365 ± 11 nm filter and 60 mW for the 506 ± 12 nm filter. For photochemical analyses, illuminations were performed in Hellma Suprasil quartz 114QS cuvettes. For the dynamic illuminations, a 4-way cuvette holder (Avantes) was used. The left outlet of the holder is connected to an Avantes AvaLight-DH-S-BAL Deuterium lamp. The right outlet is connected through a fiber to an AvaSpec UV/Vis spectrometer. The lower outlet is connected to a Lambda 721 optical beam combiner system equipped with 365 ± 11 nm and 506 ± 14 nm filter illumination means. The upper outlet is covered with a black cap. The temperature of the solution in the cuvette (20 °C) is controlled by Q-blue Wireless Temperature Control software.
Thermal relaxation experiments and Arrhenius extrapolations were performed according to Priimagi et al20, using a compound concentration of 25 μM in HBSS +1% DMSO and temperatures of 50, 60, and 70 °C. Illuminations for pharmacological experiments were performed in cylindrical clear glass vials with a volume of 4.5 mL. The typical distance between light source and vial or cuvette was 2 cm.

Data set [2] is described as follows: UV-vis spectra of trans and PSS cis states in HBSS buffer. The settings on record: 25 μM in HBSS buffer containing 1% DMSO. It is filed as physicochemical. The protocol: as §1
as §2, with “software. […]” for “software.”
The typical distance […]
between light source and vial or cuvette was 2 cm.

Data set [3] can be described thus: Photostationary state area percentages by LC-MS at the isosbestic point. It counts as physicochemical. The following applies: for PSScis (area %cis): after illumination of trans isomer with 365 ± 10 nm at 1 mM in DMSO for 10 min.
In data set [4] the target is T1, H3R (Homo sapiens, UniProt Q9Y5N1). As to the kind of experiment: [3H]NAMH competition radioligand binding on cell homogenates overexpressing H3R. The settings on record: for Fold Ki shift: (high-affinity state)/(low-affinity state); for Ki: [3H]NAMH competition, n = 3.
Data set [5] concerns the target T1, H3R. Kind of data set: Functional H3R NanoBiT-PKA (cAMP sensor) assay in transiently transfected HEK293T cells. It counts as cell-based. The following applies: inhibition of forskolin-stimulated cAMP signal, agonist alone.
Data set [6] concerns the target T1, H3R. It is filed as binding. The protocol:
(§3) To determine non-specific
(§4) specific binding from the total binding.
(§5) intervals ranging from 0-20 minutes.
(§6) was measured as described above.
(§7) model to obtain Kd values.

Data set [7] deals with T1, H3R. Kind of data set: Association and dissociation radioligand binding experiments with [3H]3f. The settings on record: for dissociation t 1/2: t1/2 = ln 2/k off; for Kd: from k off/k on, read-out: pK d(k in) calculated kinetic affinity (converted). The method, then: as §3, §4, §5, §6, §7
Data set [8] addresses hH3R (Homo sapiens, UniProt Q9Y5N1). Kind of data set: Competition binding of non-labeled ligands with trans-[3H]3f on hH3R-expressing cell homogenates.
On the set-up of data set [9]: method as in Hauwert et al. The settings on record: ref Hauwert et al., cited from earlier work.
Details of data set [10]: method as in Hauwert et al. The settings on record: approximate, extrapolated to 20 °C; ref Hauwert et al.; cited from earlier work.
For data set [11], the target named is T1, H3R. The settings on record: ref Hauwert et al., cited from earlier work.
Details of data set [12]: method as in Hauwert et al. The following applies: 25 μM in HBSS buffer containing 1% DMSO; ref Hauwert et al.; cited from earlier work.
The mark [13] stands for this setting: illumination of PSS cis state with 506 ± 20 nm at 1 mM in DMSO for 10 min.
The mark [14] stands for this setting: ↓ lower affinity of PSS cis state than trans.
Setting [15] is: ↑ higher affinity of PSS cis state than trans.

T1 sequence (Q9Y5N1 whole entry): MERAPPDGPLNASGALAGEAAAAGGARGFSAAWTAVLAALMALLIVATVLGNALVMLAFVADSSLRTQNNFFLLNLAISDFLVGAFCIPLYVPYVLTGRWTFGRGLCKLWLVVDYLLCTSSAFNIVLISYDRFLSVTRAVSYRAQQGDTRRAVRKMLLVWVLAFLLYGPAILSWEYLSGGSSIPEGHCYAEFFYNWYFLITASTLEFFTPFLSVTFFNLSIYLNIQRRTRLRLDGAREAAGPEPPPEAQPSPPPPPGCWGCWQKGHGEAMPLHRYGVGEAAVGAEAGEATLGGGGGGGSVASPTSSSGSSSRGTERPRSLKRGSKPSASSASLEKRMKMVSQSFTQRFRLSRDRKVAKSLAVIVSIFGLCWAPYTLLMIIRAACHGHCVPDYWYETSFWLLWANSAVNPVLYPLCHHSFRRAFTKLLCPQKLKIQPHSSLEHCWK
Chain of hH3R (Q9Y5N1 whole entry): as above

For the molecule `Cc1nn(C)c(C)c1/N=N/c1ccc(O[C@H]2C[C@H](N3CCCCC3)C2)cc1` [Compound 3a], in data set [1], the “Half-life (thermal relaxation of PSS cis state)” value (“Half-life” for short) is 432 h. In data set [2], this molecule displayed a λmax cis of 439 nm and a λmax trans of 347 nm. The “PSScis (area %cis)” value in data set [3] is 95 area %. The “PSStrans (area %trans)” value in [3] (setting [13]) is listed as 93 area %. Further, the “Fold Ki shift” value in data set [4] (setting [14]) is 7.9 ↓ fold. For the same molecule, the “fold improved Ki value of trans isomer compared to trans-2” value in data set [4] (trans isomers) is given as “more than 10 fold”.
For `c1cc(Cc2cnc[nH]2)ccn1` [immethridine, reference compound], the EC50 in data set [5] was 0.794 nM.
Regarding `[3H]C([3H])([3H])N1CCC(n2nc(C)c(/N=N/c3ccc(O[C@H]4C[C@H](N5CCCCC5)C4)cc3)c2C)CC1` [[^3H]3f], the “H3R binding remaining after exposure to 365 nm light” value in [6] (prebound trans state 0.5 nM, no competitor present) was “approximately 0%”. The “dissociation t 1/2” value in data set [6] (prebound trans state, 365 nm light, t1/2 = ln 2/k off) was 48 ± 12 s; in data set [7] (PSS cis state, clobenpropit) it was 6.2 ± 0.2 min; in [7] (PSS cis state, clobenpropit, listed as [^3H]3f-PSS cis) it was 6.2 ± 0.4 min; in data set [7] (trans state, clobenpropit (10 μM)), 4.9 ± 0.4 min. Further, the “fold faster dissociation kinetics upon 365 nm illumination” value in data set [6] (prebound trans, 365 nm light versus dissociation of dark trans-[3H]3f) is listed as 6.2 fold. In addition, the “time at which binding to H3R reaches equilibrium” value in [7] (0.5 nM trans state) worked out at 15 min. Also, the kon in data set [7] (PSS cis state (preilluminated trans-[3H]3f)) was 217000 M⁻¹ s⁻¹; in data set [7] (trans state, 0.5 nM) it was 2.15e+06 M⁻¹ s⁻¹. Also, the koff in data set [7] (PSS cis state, dissociation initiated with clobenpropit) is 0.00183 s⁻¹; in data set [7] (trans state, dissociation initiated with 10 μM clobenpropit), 0.0025 s⁻¹. For the same molecule, the figures for the Kd in data set [7] (PSS cis state) and in [7] (trans state) were 12.6 nM and 1.26 nM, respectively. Besides, the “fold lower k on value compared to trans-[3H]3f” value in data set [7] (PSS cis versus trans) amounted to 10 fold.
In the case of `Cc1nn(C2CCOCC2)c(C)c1/N=N/c1ccc(O[C@H]2C[C@H](N3CCCCC3)C2)cc1` [Compound 3c], the “Half-life” value in data set [1] is 600 h. In data set [2], the λmax cis stood at 440 nm and the λmax trans is listed as 349 nm. In addition, in data set [3], the “PSScis (area %cis)” value was 94 area %. Moreover, in data set [3] (setting [13]), the “PSStrans (area %trans)” value was found to be 95 area %. In addition, the “Fold Ki shift” value in data set [4] (setting [14]) is 20.0 ↓ fold.
As to `c1nc(CC2CCNCC2)c[nH]1` [immepip, reference compound], the Ki in data set [8] was 3.16 nM.
As for `c1ccc(/N=N/c2ccc(O[C@H]3C[C@H](N4CCCCC4)C3)cc2)cc1` [Compound 2], the “Half-life” value in data set [1] is 48 h. Further, in [2], the λmax cis was determined as 425 nm and the λmax trans is 350 nm. Further, the “PSScis (area %cis)” value in data set [3] is recorded as 97 area %. The “PSStrans (area %trans)” value in [3] (illumination of PSS cis state with 434 ± 20 nm at 1 mM in DMSO for 10 min) came out at 74 area %. Moreover, the “Fold Ki shift” value in data set [4] (setting [15]) was 4 fold and 4.0 ↑ fold. This molecule also had a Ki in data set [4] (pKi PSScis ± SEM, PSS cis state) of 2.51 nM.
For `Cc1nn(C2CCNCC2)c(C)c1/N=N/c1ccc(O[C@H]2C[C@H](N3CCCCC3)C2)cc1` [Compound 3e], the “Half-life” value in [1] was 696 h. In [2], the λmax cis is 434 nm and the λmax trans was found to be 346 nm. In data set [3], the “PSScis (area %cis)” value is 99 area %. In addition, in data set [3] (setting [13]), the “PSStrans (area %trans)” value stood at 92 area %. Also, the “Fold Ki shift” value in data set [4] (setting [14]) is 25.1 ↓ fold. In data set [4] (pKi trans ± SEM, trans isomer), this molecule gave an inhibitory constant (Ki) of 0.501 nM.
On to `Cc1nn(C2CCCCC2)c(C)c1/N=N/c1ccc(O[C@H]2C[C@H](N3CCCCC3)C2)cc1` [Compound 3b], for which, in data set [1], the “Half-life” value is 170 h. Further, in [2], the λmax cis came out at 440 nm and the λmax trans is listed as 351 nm. The “PSScis (area %cis)” value in data set [3] was 88 area %. The “PSStrans (area %trans)” value in [3] (setting [13]) was found to be 94 area %. Also, in data set [4] (setting [14]), the “Fold Ki shift” value is listed as 12.6 ↓ fold.
Turning to `c1ccc(/N=N/c2ccc(OCCCN3CCCCC3)cc2)cc1` [Compound 1], in data set [9] (after illumination of trans isomer with 365 ± 10 nm), the “PSScis (area %cis)” value is 97 area %. Moreover, in [9] (illumination of PSS cis state with 434 ± 20 nm), the “PSStrans (area %trans)” value is 68 area %. Also, the “Half-life” value in [10] is 264 h. In addition, the “pKi PSScis ± SEM” value in data set [11] (PSS cis state, [3H]NAMH competition) is recorded as 8.1 ± 0.1. In addition, the “pKi trans ± SEM” value in [11] (trans isomer, [3H]NAMH competition) is 7.3 ± 0.1. For the same molecule, the “Fold Ki shift” value in data set [11] (setting [15]) was 6.3 ↑ fold. In data set [12], the λmax cis is given as 432 nm and the λmax trans is recorded as 344 nm.

The values are drawn from paper PMC12257542, “A Radiolabeled Photoswitchable G Protein-Coupled Receptor Antagonist Enlightens Ligand Binding Kinetics Associated with Photoswitching” (Journal of the American Chemical Society, 2025).
